Some targets named below: Cytochrome P450 3A4 (Homo sapiens, UniProt P08684); Cytochrome P450 2D6 (Homo sapiens, UniProt P10635); Cytochrome P450 2C9 (Homo sapiens, UniProt P11712).
Data set [1] deals with T1, E3 ubiquitin-protein ligase XIAP (Homo sapiens, UniProt P98170). The data set can be described thus: Counter Screen using XIAP-Bir3 for Chemical Antagonists of Bir1/2 domains of IAP-family anti-apoptotic proteins. [Related pubchem assays (depositor defined):AID1018, AID1449, AID1514, AID1638, AID1749, AID1750, AID488957, AID488963]. (A counterscreen serves to expose hits that act by an unwanted route or on another target.)
T1 sequence (P98170 whole entry): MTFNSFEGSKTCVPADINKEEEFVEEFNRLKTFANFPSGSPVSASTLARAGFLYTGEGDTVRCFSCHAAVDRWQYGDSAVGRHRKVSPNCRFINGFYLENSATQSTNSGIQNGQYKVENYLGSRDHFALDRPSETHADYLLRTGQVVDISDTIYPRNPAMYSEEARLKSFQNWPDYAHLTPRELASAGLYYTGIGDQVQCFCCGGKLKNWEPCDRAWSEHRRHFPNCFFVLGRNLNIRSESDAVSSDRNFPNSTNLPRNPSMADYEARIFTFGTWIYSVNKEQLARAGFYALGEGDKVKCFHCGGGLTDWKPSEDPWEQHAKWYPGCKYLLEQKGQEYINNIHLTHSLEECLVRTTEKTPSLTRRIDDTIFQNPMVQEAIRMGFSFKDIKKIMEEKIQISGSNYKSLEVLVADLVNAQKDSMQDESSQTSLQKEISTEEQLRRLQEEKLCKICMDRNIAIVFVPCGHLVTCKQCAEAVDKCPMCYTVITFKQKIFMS

Data set [2] deals with T1, E3 ubiquitin-protein ligase XIAP. The data set can be described thus: small molecules displacing peptide from XIAP – biochemical, IAP family, fluorescence polarization (AID 1018). The class given is functional. Background: Polarisation of emitted light reports the rotation of a fluorescent probe.
The target in data set [3] is T2, Calpain-2 catalytic subunit (Sus scrofa, UniProt P43367).
T2 sequence (P43367 whole entry): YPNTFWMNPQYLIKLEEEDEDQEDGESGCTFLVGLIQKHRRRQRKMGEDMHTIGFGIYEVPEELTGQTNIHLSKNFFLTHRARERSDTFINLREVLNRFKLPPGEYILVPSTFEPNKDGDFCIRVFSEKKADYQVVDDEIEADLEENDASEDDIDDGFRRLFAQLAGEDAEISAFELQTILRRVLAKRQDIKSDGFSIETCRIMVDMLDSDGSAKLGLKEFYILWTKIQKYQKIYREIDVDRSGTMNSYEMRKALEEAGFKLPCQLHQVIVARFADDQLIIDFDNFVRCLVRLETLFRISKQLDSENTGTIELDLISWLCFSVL
The data set can be described thus: m-calpain protease blockers, concentration series – biochemical, fluorogenic peptide substrate, dose response (AID 1420). The class given is functional.

Data set [4] in a line: luciferase reporter signal suppression in cells – H4 neuroglioma cells, luminescence, dose response (AID 1990). The class given is functional, cell-based. For orientation: A reporter such as luciferase makes a cellular process visible.
Data set [5] has as its target Peroxisome proliferator-activated receptor gamma/Nuclear receptor coactivator 1 (Homo sapiens, UniProt P37231). Nature of the data set: TR-FRET dose response biochemical High Throughput Screening assay for agonists of the steroid receptor coactivator 1 (SRC-1) recruitment by the peroxisome proliferator-activated receptor gamma (PPAR gamma): non-selective agonists. [Related pubchem assays (depositor defined):AID1300, AID1808, AID504735, AID631]. The class given is protein assay.

Data set [6] in a line: Luminescence Cell-Based Dose Response HTS to Identify Inhibitors of 5'UTR Stem-Loop Driven Prion Protein mRNA Translation in H4 Neuroglioblastoma Cells. [Related pubchem assays: 1827 (Project Summary), 1813 (Primary HTS)]. The class given is functional.
Data set [7] deals with Peroxisome proliferator-activated receptor gamma/Nuclear receptor coactivator 3 (Homo sapiens, UniProt P37231). Nature of the data set: TR-FRET dose response biochemical High Throughput Screening assay for agonists of the steroid receptor coactivator 3 (SRC-3) recruitment by the peroxisome proliferator-activated receptor gamma (PPAR gamma): non-selective agonists. [Related pubchem assays: 1301 (Confirmation screen.), 1048 (Primary screen.)]. The class given is functional.

The nature of data set [8]: alpha-synuclein stem-loop luciferase translation blockers – H4 neuroglioma cells, luminescence, confirmation (AID 1988). The format is functional, cell-based.
Data set [9] concerns the target Peroxisome proliferator-activated receptor gamma/Nuclear receptor coactivator 2 (Homo sapiens, UniProt P37231). Nature of the data set: TR-FRET dose response biochemical High Throughput Screening assay for agonists of the steroid receptor coactivator 2 (SRC-2) recruitment by the peroxisome proliferator-activated receptor gamma (PPAR gamma): non-selective agonists. [Related pubchem assays: 1297, 1032 ]. The format is functional.

Data set [10] has as its system Vero. Nature of the data set: cells. The class given is functional, cell-based. The conditions noted are these: Chlorocebus sabaeus.
Data set [11] addresses T3, Tyrosine-protein phosphatase non-receptor type 7 (Homo sapiens, UniProt P35236).
T3 sequence (P35236 whole entry): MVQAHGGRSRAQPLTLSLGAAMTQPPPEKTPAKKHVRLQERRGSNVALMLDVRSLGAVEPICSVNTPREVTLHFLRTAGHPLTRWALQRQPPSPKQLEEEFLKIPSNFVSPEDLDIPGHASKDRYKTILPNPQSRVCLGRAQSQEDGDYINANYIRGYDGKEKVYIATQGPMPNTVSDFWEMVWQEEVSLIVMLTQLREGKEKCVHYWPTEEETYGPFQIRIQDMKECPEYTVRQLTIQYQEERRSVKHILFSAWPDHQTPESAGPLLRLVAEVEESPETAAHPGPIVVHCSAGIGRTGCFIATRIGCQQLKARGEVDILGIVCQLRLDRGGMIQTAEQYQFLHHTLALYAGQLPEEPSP
The data set can be described thus: inhibition of hematopoietic tyrosine phosphatase HePTP – biochemical, set 2, SAR follow-up (AID 449736). The format is functional.

The target in the next data set is T4, Cysteine protease ATG4B (Homo sapiens, UniProt Q9Y4P1).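 Further: Fluorescence-based dose-response confirmation assay measuring inhibition of ATG4B activity.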
T4 sequence (Q9Y4P1 whole entry): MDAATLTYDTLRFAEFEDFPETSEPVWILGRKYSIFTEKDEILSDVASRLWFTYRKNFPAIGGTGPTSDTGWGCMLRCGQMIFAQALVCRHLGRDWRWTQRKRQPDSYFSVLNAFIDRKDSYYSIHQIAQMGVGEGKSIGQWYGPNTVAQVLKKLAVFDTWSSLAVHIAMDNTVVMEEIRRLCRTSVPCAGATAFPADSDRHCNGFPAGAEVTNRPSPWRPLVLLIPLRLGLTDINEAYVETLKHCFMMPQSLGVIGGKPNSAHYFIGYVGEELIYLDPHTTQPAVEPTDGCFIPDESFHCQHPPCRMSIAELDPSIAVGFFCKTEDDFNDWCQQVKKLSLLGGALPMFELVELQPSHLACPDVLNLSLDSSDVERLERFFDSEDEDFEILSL
The format is functional.

For another data set, the target named is Phospholipase A2 (Homo sapiens, UniProt P04054). The format is functional.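 Further: confirmatory dose-response counterscreen on phospholipase A2, testing hits that came from an ultra-high-throughput screen for ATG4B inhibitors.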
Sequence of Phospholipase A2 (P04054 whole entry): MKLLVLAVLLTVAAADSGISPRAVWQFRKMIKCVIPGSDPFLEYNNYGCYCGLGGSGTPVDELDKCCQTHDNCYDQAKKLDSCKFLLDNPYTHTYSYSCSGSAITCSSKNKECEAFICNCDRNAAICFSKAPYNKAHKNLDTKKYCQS
Data set [12] has as its system BJ. The data set can be described thus: BJ-TERT fibroblast viability loss – cell-based, RAS-independent, luminescence, dose response (AID 1933). The conditions noted are these: Homo sapiens. The class given is functional.
In data set [13] the test system is BJ. Nature of the data set: cells. The class given is functional, cell-based. The settings on record: Homo sapiens.
The test system of data set [14] is BJ. The data set can be described thus: BJ-TERT-LT-ST fibroblast viability loss – cell-based, RAS-independent, luminescence, dose response (AID 1935).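 Further: BJ fibroblasts immortalized with TERT plus LT and ST oncogenes.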 The class given is functional. The conditions noted are these: Homo sapiens.
The nature of data set [15]: DRD fibroblast viability loss – cell-based, non-viral oncogenic, luminescence, dose response (AID 1934). The format is functional. The conditions noted are these: Homo sapiens.
Data set [16] concerns Vero. Nature of the data set: cells. The class given is functional. The conditions noted are these: Chlorocebus sabaeus.
Data set [17] concerns the target Voltage-dependent T-type calcium channel subunit alpha-1H (Homo sapiens, UniProt O95180). The format is functional.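 Further: channel activity triggered by adding a high calcium stimulation buffer.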
The target of a further data set is T5, Cytochrome P450 1A2 (Homo sapiens, UniProt P05177).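 Further: PubChem cytochrome P450 panel assay, CYP1A2 panel member.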
T5 sequence (P05177 whole entry): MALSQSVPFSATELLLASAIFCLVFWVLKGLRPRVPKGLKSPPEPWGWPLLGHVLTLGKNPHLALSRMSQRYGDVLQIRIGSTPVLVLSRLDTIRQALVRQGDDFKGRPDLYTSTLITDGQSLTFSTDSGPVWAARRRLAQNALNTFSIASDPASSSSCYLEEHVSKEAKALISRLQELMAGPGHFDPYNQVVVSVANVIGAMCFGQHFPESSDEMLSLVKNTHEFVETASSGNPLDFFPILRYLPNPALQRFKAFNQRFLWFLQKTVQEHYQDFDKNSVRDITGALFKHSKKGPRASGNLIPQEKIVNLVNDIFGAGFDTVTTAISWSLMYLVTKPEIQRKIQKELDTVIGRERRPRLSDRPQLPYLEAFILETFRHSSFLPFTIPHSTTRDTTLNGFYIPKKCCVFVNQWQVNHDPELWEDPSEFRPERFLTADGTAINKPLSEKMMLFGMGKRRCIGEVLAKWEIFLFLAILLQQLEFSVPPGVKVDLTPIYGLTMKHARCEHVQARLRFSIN

Data set [18] in a line: viability of uninfected HEp-2 cells – cell-based, HTS, cytotoxicity control for RSV inhibitor project, dose response (AID 2410). The conditions noted are these: human respiratory syncytial virus. The format is functional.
The next data set deals with HEK293. The data set can be described thus: EBV LMP1 TES2 canonical NF-kB signalling blockers – cell-based, HEK293, luciferase, cherry-pick, dose response (AID 588343). The class given is functional. The conditions noted are these: Homo sapiens.

The text below walks through data of ChEMBL document CHEMBL1201862, “PubChem BioAssay data set” (2004).

Activity calls are given as the source filed them. Where only a bound is given, the exact number is not on record here.

Sequence of Cytochrome P450 3A4 (P08684 whole entry): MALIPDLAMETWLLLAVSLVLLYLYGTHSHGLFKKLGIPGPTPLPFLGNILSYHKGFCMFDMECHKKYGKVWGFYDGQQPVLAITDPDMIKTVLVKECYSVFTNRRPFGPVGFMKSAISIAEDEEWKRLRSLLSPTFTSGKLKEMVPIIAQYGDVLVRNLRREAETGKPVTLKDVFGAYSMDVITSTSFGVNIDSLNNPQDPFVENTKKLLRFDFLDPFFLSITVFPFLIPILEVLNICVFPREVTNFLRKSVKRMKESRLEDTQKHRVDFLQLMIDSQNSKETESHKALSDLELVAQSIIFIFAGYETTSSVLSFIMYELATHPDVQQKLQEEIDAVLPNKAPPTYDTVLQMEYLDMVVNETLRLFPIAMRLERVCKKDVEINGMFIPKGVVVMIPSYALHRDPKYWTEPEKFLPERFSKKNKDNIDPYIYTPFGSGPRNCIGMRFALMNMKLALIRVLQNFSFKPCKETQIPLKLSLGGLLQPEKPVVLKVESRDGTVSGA
Sequence of Peroxisome proliferator-activated receptor gamma/Nuclear receptor coactivator 2 (P37231 whole entry): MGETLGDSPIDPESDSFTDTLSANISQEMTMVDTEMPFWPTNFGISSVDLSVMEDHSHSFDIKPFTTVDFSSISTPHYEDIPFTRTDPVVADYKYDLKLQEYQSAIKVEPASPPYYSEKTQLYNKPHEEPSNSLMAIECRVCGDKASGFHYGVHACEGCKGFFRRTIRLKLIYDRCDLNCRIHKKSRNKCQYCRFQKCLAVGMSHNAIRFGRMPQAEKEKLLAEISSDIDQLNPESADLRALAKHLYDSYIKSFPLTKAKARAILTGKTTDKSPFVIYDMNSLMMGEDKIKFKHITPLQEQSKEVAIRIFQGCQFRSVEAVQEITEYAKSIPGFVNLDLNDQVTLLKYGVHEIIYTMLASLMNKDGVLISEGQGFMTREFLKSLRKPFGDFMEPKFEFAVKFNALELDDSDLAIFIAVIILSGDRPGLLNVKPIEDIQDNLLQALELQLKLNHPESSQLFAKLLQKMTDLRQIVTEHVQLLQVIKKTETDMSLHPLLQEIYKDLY
Sequence of Peroxisome proliferator-activated receptor gamma/Nuclear receptor coactivator 2 (Q15596 whole entry, further chain): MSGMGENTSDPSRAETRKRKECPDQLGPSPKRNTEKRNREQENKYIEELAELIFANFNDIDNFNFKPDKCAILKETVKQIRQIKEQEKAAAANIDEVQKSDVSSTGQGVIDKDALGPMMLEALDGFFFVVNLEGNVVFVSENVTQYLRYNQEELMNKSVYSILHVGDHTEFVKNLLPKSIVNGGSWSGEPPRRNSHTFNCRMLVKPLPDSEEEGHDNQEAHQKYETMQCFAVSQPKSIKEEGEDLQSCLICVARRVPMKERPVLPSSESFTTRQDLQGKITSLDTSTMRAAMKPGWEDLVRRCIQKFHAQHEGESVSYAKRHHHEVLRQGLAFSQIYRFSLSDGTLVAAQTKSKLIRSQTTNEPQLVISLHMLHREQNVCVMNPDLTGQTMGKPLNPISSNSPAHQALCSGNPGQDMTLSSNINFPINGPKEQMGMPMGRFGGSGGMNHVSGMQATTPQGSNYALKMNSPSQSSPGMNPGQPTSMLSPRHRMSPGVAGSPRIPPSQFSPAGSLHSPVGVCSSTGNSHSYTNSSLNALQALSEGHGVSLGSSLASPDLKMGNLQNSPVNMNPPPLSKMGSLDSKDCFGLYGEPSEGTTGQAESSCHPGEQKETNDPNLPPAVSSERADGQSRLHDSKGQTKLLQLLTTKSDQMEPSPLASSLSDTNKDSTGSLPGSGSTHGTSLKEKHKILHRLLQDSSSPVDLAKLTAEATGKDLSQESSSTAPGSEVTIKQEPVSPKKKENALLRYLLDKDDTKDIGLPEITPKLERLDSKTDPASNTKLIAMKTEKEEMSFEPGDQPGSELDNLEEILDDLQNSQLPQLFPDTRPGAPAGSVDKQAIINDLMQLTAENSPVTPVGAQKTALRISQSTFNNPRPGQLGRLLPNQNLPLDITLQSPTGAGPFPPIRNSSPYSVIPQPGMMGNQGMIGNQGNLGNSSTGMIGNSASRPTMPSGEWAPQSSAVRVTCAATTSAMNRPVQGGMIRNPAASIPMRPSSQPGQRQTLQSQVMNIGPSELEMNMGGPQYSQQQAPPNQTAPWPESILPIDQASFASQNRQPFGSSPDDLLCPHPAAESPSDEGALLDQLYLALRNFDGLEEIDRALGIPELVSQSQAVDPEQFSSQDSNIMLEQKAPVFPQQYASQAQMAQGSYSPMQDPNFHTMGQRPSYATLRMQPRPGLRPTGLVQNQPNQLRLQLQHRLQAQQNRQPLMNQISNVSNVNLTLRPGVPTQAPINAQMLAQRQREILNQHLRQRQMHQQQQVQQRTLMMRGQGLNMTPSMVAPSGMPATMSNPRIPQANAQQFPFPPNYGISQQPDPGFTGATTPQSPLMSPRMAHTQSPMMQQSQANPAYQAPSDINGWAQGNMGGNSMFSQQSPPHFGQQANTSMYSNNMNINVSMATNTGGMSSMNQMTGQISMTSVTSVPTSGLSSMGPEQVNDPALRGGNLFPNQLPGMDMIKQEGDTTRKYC
Sequence of Peroxisome proliferator-activated receptor gamma/Nuclear receptor coactivator 1 (P37231 whole entry): as the sequence (P37231 whole entry) above
Sequence of Peroxisome proliferator-activated receptor gamma/Nuclear receptor coactivator 1 (Q15788 whole entry, further chain): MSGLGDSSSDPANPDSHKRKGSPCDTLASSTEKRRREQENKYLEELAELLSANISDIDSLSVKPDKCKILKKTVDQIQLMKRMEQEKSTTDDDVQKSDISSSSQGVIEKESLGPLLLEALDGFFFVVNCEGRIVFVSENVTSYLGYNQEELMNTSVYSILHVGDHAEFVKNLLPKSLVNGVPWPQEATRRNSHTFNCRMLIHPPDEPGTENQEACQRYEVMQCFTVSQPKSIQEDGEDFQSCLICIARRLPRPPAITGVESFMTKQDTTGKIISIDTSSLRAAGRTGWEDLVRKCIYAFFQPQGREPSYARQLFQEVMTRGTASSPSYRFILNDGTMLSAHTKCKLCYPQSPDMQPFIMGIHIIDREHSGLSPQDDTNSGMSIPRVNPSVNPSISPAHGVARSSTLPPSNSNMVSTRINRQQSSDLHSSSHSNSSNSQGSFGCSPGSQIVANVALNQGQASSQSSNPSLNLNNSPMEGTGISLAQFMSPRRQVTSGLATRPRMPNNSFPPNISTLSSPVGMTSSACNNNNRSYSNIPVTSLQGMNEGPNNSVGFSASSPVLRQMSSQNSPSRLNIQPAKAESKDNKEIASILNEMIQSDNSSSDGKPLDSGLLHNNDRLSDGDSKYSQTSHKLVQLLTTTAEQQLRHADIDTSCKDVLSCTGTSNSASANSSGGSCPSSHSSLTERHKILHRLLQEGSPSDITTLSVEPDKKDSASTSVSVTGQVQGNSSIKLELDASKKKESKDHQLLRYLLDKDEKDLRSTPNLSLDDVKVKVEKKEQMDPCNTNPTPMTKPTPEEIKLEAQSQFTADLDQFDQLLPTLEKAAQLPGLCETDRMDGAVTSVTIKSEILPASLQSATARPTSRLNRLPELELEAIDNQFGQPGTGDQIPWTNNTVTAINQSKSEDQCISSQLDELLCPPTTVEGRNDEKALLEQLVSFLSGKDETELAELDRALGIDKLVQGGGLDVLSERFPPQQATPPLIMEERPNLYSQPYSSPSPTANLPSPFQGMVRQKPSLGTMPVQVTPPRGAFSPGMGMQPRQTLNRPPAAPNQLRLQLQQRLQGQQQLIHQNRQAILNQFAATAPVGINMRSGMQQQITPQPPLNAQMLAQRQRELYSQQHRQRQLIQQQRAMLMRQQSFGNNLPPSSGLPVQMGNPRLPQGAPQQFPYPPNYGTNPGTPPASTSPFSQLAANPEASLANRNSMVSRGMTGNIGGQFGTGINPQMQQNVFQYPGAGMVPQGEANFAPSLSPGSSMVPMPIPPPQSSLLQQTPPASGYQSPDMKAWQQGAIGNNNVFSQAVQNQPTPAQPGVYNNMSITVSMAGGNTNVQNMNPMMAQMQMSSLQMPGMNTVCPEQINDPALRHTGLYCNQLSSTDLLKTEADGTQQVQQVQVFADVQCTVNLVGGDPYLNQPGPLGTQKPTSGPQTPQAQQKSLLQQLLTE

Consider `CCCCSc1nnc2c(n1)OC(C(=O)c1ccccc1)Nc1ccccc1-2` (stereo unspecified), for which the IC50 (usually the concentration at which inhibition is half-maximal) in data set [1] was > 100 µM (inactive); in [2] it was > 50 µM (not active); in data set [3], > 50 µM (not active).

Regarding `Clc1ccc(COn2c(-c3ccccc3)nc3ccccc32)cc1`, the AC50 (commonly the concentration at which the activity in the assay is half-maximal) at Cytochrome P450 3A4 was “inconclusive”.

As for `Cc1ccccc1-c1nnc(S)n1/N=C/c1ccc(-c2ccccc2Br)o1`, the EC50 (as a rule, the concentration that produces a half-maximal response) in data set [4] is 18.7 µM (active); in data set [5], 29.4 µM (inactive); in [6], 13.9 µM (active); in data set [7], > 79.4 µM (not active); in data set [8], 11.7 µM (active); in [9], 28.6 µM (not active). The IC50 with Vero [10] is 2.91 µM (active).

`Nc1c(C(=O)N2CCOCC2)sc(=S)n1-c1ccc(F)c(Cl)c1`: the IC50 in data set [11] is > 100 µM (inactive).

With `CC1CCc2sc(C(=O)N3CCC(C(N)=O)CC3)cc2C1` (stereo unspecified), the IC50 on Cysteine protease ATG4B was 13.2 µM (active); at Phospholipase A2, 9.91 µM (active).

As for `Cc1ccc(N(Cc2cc(O)nc3ccccc23)C(=O)CCl)cc1`, the EC50 with BJ [12] is 1.19 µM (inconclusive); with BJ [13] it was 8.7 µM (active); in the data set on BJ [14] it was 8.14 µM (inconclusive); in [15] it was 4.97 µM (inconclusive). In the data set with Vero [10], the 50% inhibitory concentration (IC50) was > 25 µM (active). Further, the half-maximal cytotoxic concentration (CC50) (as a rule, the concentration that lowers cell viability or growth by half) in the data set on Vero [16] was 6.57 µM (active).

With `Cn1c(=O)n(C)c2cc([N+](=O)[O-])c(N3CCN(C(=O)c4ccccc4Cl)CC3)cc21`, the results for the half-maximal activity concentration (AC50) at Cytochrome P450 2D6 and at Cytochrome P450 3A4 were 0.0355 µM (inconclusive) and “inconclusive”, respectively.

`O=c1[nH]c2ccccc2n1CCCN1CCN(C(c2ccccc2)c2ccccc2)CC1` [OXATOMIDE]: in data set [17], the 50% effective concentration (EC50) is 5.15 µM (active). Moreover, the AC50 on Cytochrome P450 1A2 is 25.1 µM (inconclusive); at Cytochrome P450 2C9, 7.94 µM (inconclusive); at Cytochrome P450 3A4 it was “inconclusive”.

For `C#CCn1c(S(=O)(=O)Cc2ccc(F)cc2)nc(-c2ccccc2)c1-c1ccccc1`, the CC50 was 3.47 µM (active) in data set [18] and 22.2 µM (active) with Vero [16]. Further, in the data set on HEK293, the AC50 is 21.7 µM (active). Also, the half-inhibitory concentration (IC50) in the data set with Vero [10] was 3.94 µM (active); in the data set “cells” it was 4.97 µM (active).
